According to patent US9340577B2, “HLA binding motifs and peptides and their uses” (priority 1992, dated 2016):
No end group written: not given here.

What was measured:
Experiment in all cases: biochemical
DRB1*0301 = DRB1*0301 (Homo sapiens, UniProt P01903+P01911, A100K/A102G/A103R/A169T/F55Y/I96L/K41T/L162R/M171V/P40S/Q125H/Q178H/Q39Y/R42S/S66N/T106N/T262R/W38E/Y61H); type: binding
DRB1*1201 = DRB1*1201 (Homo sapiens, UniProt P01903+P01911, A100R/A169T/D57E/D86V/F55L/H45Y/K41T/L162R/M171V/P40S/Q125H/Q178H/Q39Y/Q99D/R42G/S66L/T262R/V114A/V67L/W38E/Y59H/Y61H/Y89S); type: binding
DR4w4 (DRB1*0401) = DR4w4 (DRB1*0401) (Homo sapiens, UniProt P01903+P01911, A100K/A169T/F76Y/I96L/K127E/L162R/M171V/N62H/P40V/Q125Y/R42H/S133A/S149N/S66Y/V115G/V209L/W38E); type: binding
DRB1*1101 = DRB1*1101 (Homo sapiens, UniProt P01903+P01911, A100R/A169T/A87E/I96F/K41T/L162R/M171V/P40S/Q125H/Q178H/Q39Y/Q99D/R42S/S66Y/T262R/V115G/W38E); details: Binding affinity DRB1 *1101
DRB1*0802 = DRB1*0802 (Homo sapiens, UniProt P01903+P01911, A100R/A103L/A169T/F76Y/H45Y/I96F/K41T/L162R/M171V/P40S/Q125H/Q178H/Q39Y/Q99D/R218S/R42G/S66Y/V115G/W38E); type: binding
DRB5*0101 = DRB5*0101 (Homo sapiens, UniProt P01903+Q30154); details: Binding affinity DRB5 *0101
DR7 (DRB1*0701) = DR7 (DRB1*0701) (Homo sapiens, UniProt P01903+P01911, A100R/A102G/A103Q/D57E/D86V/E43K/F76Y/K127E/L162R/M171V/P40G/Q125H/Q99D/R33Q/R42Y/R54Q/S133A/S66F/T210M/V115G/Y107V/Y59L/Y89S); type: binding
DRB1*0901 = DRB1*0901 (Homo sapiens, UniProt P01903+P01911, A100R/A103E/D57H/D86V/F55Y/F60I/F76Y/I96F/K127E/L162R/M171V/P40D/Q125H/Q99R/R33Q/R42F/S133A/S66N/T210M/V115G/W38K/Y107V/Y59G/Y89S); type: binding
DRB1*1302 = DRB1*1302 (Homo sapiens, UniProt P01903+P01911, A100E/A169T/K41T/L162R/M171V/P40S/Q125H/Q178H/Q39Y/Q99D/R42S/S66N/T262R/V115G/W38E/Y61H); type: binding
DR1 (DRB1*0101) = DR1 (DRB1*0101) (Homo sapiens, UniProt P01903+P01911, A100R/D57E/F55L/F60I/F76Y/I96L/L162R/M171V/P40L/Q125E/R42F/V115G/Y59C); type: binding
DRB4*0101 = DRB4*0101 (Homo sapiens, UniProt P01903+P13762, G164S); type: binding
DRB1*1501 = DRB1*1501 (Homo sapiens, UniProt P01903+P01911); type: binding

DRB1*1302, sequence (P01903 26-254 limits assumed, other chains not shown): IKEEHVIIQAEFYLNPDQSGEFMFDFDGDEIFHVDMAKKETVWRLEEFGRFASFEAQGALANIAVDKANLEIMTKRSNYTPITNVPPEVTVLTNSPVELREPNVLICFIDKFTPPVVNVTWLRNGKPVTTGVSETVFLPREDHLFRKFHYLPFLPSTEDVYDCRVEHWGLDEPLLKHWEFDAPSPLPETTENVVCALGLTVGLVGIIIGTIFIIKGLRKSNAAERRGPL
DRB1*0301, sequence (P01903 26-254 limits assumed, other chains not shown): as above
DRB1*1101, sequence (P01903 26-254 limits assumed, other chains not shown): as above

Molecule | IC50 (DRB1*0301) [nM] | IC50 (DRB1*1201) [nM] | IC50 (DR4w4 (DRB1*0401)) [nM] | IC50 (DRB1*1101) [nM] | IC50 (DRB1*0802) [nM] | IC50 (DRB5*0101) [nM] | IC50 (DR7 (DRB1*0701)) [nM] | IC50 (DRB1*0901) [nM] | IC50 (DRB1*1302) [nM] | IC50 (DR1 (DRB1*0101)) [nM] | IC50 (DRB4*0101) [nM] | IC50 (DRB1*1501) [nM]
CC[C@H](C)[C@H](NC(=O)[C@H](Cc1ccccc1)NC(=O)[C@H](Cc1c[nH]c2ccccc12)NC(=O)CNC(=O)[C@H](Cc1ccccc1)NC(=O)[C@H](CC(C)C)NC(=O)[C@H](Cc1ccccc1)NC(=O)CNC(=O)[C@@H](N)CC(C)C)C(=O)N[C@@H](CCCCN)C(=O)N[C@@H](CO)C(=O)N[C@@H](CO)C(=O)N[C@@H](CC(N)=O)C(=O)N[C@@H](CCC(=O)O)C(=O)N[C@@H](C)C(=O)O [Peptide 68.0084] | > 20000 | 475 | – | – | – | – | – | – | – | – | – | –
CC[C@H](C)[C@H](NC(=O)[C@H](CCCNC(=N)N)NC(=O)[C@@H](N)[C@@H](C)O)C(=O)N[C@@H](Cc1ccc(O)cc1)C(=O)N[C@@H](CC(N)=O)C(=O)N[C@H](C(=O)N[C@H](C(=O)NCC(=O)N[C@H](C(=O)N[C@@H](CC(C)C)C(=O)N[C@@H](CCCNC(=N)N)C(=O)NCC(=O)N[C@@H](C)C(=O)N[C@H](C(=O)N[C@@H](CCC(=O)O)C(=O)O)C(C)C)[C@@H](C)O)[C@@H](C)CC)C(C)C [Peptide 68.0107] | > 20000 | 502 | – | – | – | – | – | – | – | – | – | –
CSCC[C@H](NC(=O)[C@@H]1CCCN1C(=O)[C@H](CC(=O)O)NC(=O)[C@@H](N)Cc1ccc(O)cc1)C(=O)N[C@@H](Cc1ccccc1)C(=O)N[C@@H](CCCCN)C(=O)N[C@@H](Cc1ccc(O)cc1)C(=O)N[C@@H](Cc1c[nH]cn1)C(=O)N[C@@H](CC(C)C)C(=O)N[C@H](C(=O)N[C@H](C(=O)N[C@@H](C)C(=O)N[C@@H](CCC(N)=O)C(=O)N[C@H](C(=O)N[C@@H](CCCNC(=N)N)C(=O)O)C(C)C)C(C)C)[C@@H](C)O [Peptide 68.0117] | > 20000 | 240 | – | – | – | – | – | – | – | – | – | –
CSCC[C@H](NC(=O)[C@@H]1CCCN1C(=O)[C@@H](N)CC(=O)O)C(=O)N[C@@H](Cc1ccccc1)C(=O)N[C@@H](CCCCN)C(=O)N[C@@H](Cc1ccc(O)cc1)C(=O)N[C@@H](Cc1c[nH]cn1)C(=O)N[C@@H](CC(C)C)C(=O)N[C@H](C(=O)N[C@H](C(=O)N[C@@H](C)C(=O)N[C@@H](CCC(N)=O)C(=O)N[C@H](C(=O)N[C@@H](CCCNC(=N)N)C(=O)NCC(=O)O)C(C)C)C(C)C)[C@@H](C)O [Peptide 68.0118] | > 20000 | 470 | – | – | – | – | – | – | – | – | – | –
CSCC[C@H](NC(=O)CNC(=O)CNC(=O)[C@H](CCCNC(=N)N)NC(=O)[C@@H](NC(=O)[C@H](CCC(N)=O)NC(=O)[C@H](C)NC(=O)[C@@H](NC(=O)[C@@H](NC(=O)[C@H](CC(C)C)NC(=O)[C@H](Cc1c[nH]cn1)NC(=O)[C@H](Cc1ccc(O)cc1)NC(=O)[C@H](CCCCN)NC(=O)[C@H](Cc1ccccc1)NC(=O)[C@@H](N)CCSC)[C@@H](C)O)C(C)C)C(C)C)C(=O)O [Peptide 68.0119] | > 20000 | 482 | – | – | – | – | – | – | – | – | – | –
CC[C@H](C)[C@H](NC(=O)[C@H](CCC(N)=O)NC(=O)[C@@H](N)CCCNC(=N)N)C(=O)N[C@@H](Cc1ccc(O)cc1)C(=O)N[C@H](C(=O)N[C@@H](C)C(=O)N[C@@H](C)C(=O)N[C@@H](Cc1ccccc1)C(=O)N[C@H](C(=O)N[C@H](C(=O)N[C@@H](CCC(N)=O)C(=O)N[C@@H](C)C(=O)N[C@@H](C)C(=O)N[C@@H](C)C(=O)N[C@@H](CCC(=O)O)C(=O)O)C(C)C)[C@@H](C)O)C(C)C [Peptide 68.0134] | > 20000 | 609 | – | – | – | – | – | – | – | – | – | –
CC[C@H](C)[C@H](NC(=O)[C@@H](N)CCC(N)=O)C(=O)N[C@@H](Cc1ccc(O)cc1)C(=O)N[C@H](C(=O)N[C@@H](C)C(=O)N[C@@H](C)C(=O)N[C@@H](Cc1ccccc1)C(=O)N[C@H](C(=O)N[C@H](C(=O)N[C@@H](CCC(N)=O)C(=O)N[C@@H](C)C(=O)N[C@@H](C)C(=O)N[C@@H](C)C(=O)N[C@@H](CCC(=O)O)C(=O)N[C@H](C(=O)O)[C@@H](C)O)C(C)C)[C@@H](C)O)C(C)C [Peptide 68.0135] | > 20000 | 934 | – | – | – | – | – | – | – | – | – | –
CC(C)C[C@H](NC(=O)[C@@H](NC(=O)[C@H](CCC(=O)O)NC(=O)[C@H](C)NC(=O)[C@H](C)NC(=O)[C@H](C)NC(=O)[C@H](CCC(N)=O)NC(=O)[C@@H](NC(=O)[C@@H](NC(=O)[C@H](Cc1ccccc1)NC(=O)[C@H](C)NC(=O)[C@H](C)NC(=O)[C@@H](N)C(C)C)[C@@H](C)O)C(C)C)[C@@H](C)O)C(=O)N[C@@H](CO)C(=O)N[C@@H](CCC(=O)O)C(=O)O [Peptide 68.0136] | > 20000 | 4460 | – | – | – | – | – | – | – | – | – | –
CC[C@H](C)[C@H](NC(=O)CNC(=O)[C@@H](NC(=O)[C@H](CCCCN)NC(=O)[C@H](Cc1ccc(O)cc1)NC(=O)[C@H](Cc1c[nH]c2ccccc12)NC(=O)[C@H](Cc1ccc(O)cc1)NC(=O)[C@@H](N)CC(C)C)[C@@H](C)O)C(=O)N[C@@H](CO)C(=O)N[C@@H](CC(N)=O)C(=O)N[C@H](C(=O)N[C@@H](CO)C(=O)N[C@@H](CCC(=O)O)C(=O)N[C@H](C(=O)N[C@@H](Cc1ccc(O)cc1)C(=O)O)C(C)C)[C@@H](C)CC [Peptide 89.0009] | > 20000 | 4620 | 20 | 6280 | 1440 | 634 | 19 | 631 | 319 | 41 | – | –
CSCC[C@H](NC(=O)[C@H](Cc1ccc(O)cc1)NC(=O)[C@H](Cc1ccc(O)cc1)NC(=O)[C@@H](NC(=O)[C@@H](N)CO)C(C)C)C(=O)N[C@H](C(=O)N[C@@H](CC(=O)O)C(=O)N[C@@H](C)C(=O)NCC(=O)N[C@H](C(=O)N[C@@H](Cc1c[nH]c2ccccc12)C(=O)N[C@@H](CC(=O)O)C(=O)N[C@@H](CCCCN)C(=O)N[C@H](C(=O)N[C@@H](C)C(=O)O)[C@@H](C)O)[C@@H](C)O)[C@@H](C)O [Peptide 90.0182] | 328 | 708 | – | 2880 | 8460 | > 20000 | – | 1600 | 14 | 9.3 | 7 | 43
IHFIQGAVISFVNST [Peptide 89.0037] | > 20000 | 732 | 5130 | > 20000 | 11700 | > 20000 | 338 | – | – | 31 | 155 | 6980
NCILLYGAANTGKSL [Peptide 89.0017] | > 20000 | > 20000 | – | 5780 | 2690 | 442 | > 20000 | – | 2120 | 81 | 525 | –
TVTFVTEQQQQMFLG [Peptide 90.0210] | 41 | 2770 | – | > 20000 | 6020 | > 20000 | > 20000 | > 20000 | > 20000 | 1950 | – | > 20000
WKLIRMECALLYTAK [Peptide 90.0199] | 141 | 159 | – | 2000 | 2700 | 3630 | 3160 | 4000 | 98 | – | 62 | 509
